In patent US10155743B2, “Glutarimide derivatives, use thereof, pharmaceutical composition based thereon and methods for producing glutarimide derivatives” (OBSCHESTVO S OGRANICHENNOI OTVETSTVENNOSTIYU …, priority 2013, dated 2018):

Experiments:
[1] = test system: hRV strain (GKV reg. No. 2730); assay: Antiviral activity against rhinovirus in mice (body weight, lung weight, infectious titer in lungs); format: in vivo; conditions: for Body weight of the mice after infection with hRV, day 0: 30 mg/kg orally once daily for 5 days starting 12 hours after infection; for Body weight of the mice after infection with hRV, day 1 / Body weight of the mice after infection with hRV, day 2 / Lung weight of the mice after infection with hRV, day 2 / Body weight of the mice after infection with hRV, day 3 / Lung weight of the mice after infection with hRV, day 3 / Body weight of the mice after infection with hRV, day 4 / Lung weight of the mice after infection with hRV, day 4: 30 mg/kg orally once daily; for Body weight of the mice after infection with hRV, day 1: day 1 after infection; for Body weight of the mice after infection with hRV, day 2 / Lung weight of the mice after infection with hRV, day 2: day 2 after infection; for Body weight of the mice after infection with hRV, day 3 / Lung weight of the mice after infection with hRV, day 3: day 3 after infection; for Body weight of the mice after infection with hRV, day 4 / Lung weight of the mice after infection with hRV, day 4: day 4 after infection; for Suppression of the reproduction of the virus in mouse lungs, Δ lg, Day 2 after infection / Suppression of the reproduction of the virus in mouse lungs, Δ lg, Day 3 after infection / Suppression of the reproduction of the virus in mouse lungs, Δ lg, Day 4 after infection / Infectious titer of the virus in lungs, lg TCID50, Day 2 after infection / Infectious titer of the virus in lungs, lg TCID50, Day 3 after infection / Infectious titer of the virus in lungs, lg TCID50, Day 4 after infection: 30 mg/kg orally; for Suppression of the reproduction of the virus in mouse lungs, Δ lg, Day 2 after infection / Suppression of the reproduction of the virus in mouse lungs, Δ lg, Day 3 after infection / Suppression of the reproduction of the virus in mouse lungs, Δ lg, Day 4 after infection: difference control minus experimental group; for Infectious titer of the virus in lungs, lg TCID50, Day 2 after infection / Infectious titer of the virus in lungs, lg TCID50, Day 3 after infection / Infectious titer of the virus in lungs, lg TCID50, Day 4 after infection: lung suspension titrated in Hela cell culture
[2] = test system: influenza virus strain A/California/07/09 (H1N1) pdm09; assay: animal or person; format: in vivo, white outbred female mice; conditions: unidentified influenza virus, H1N1, in Mus musculus, po, 336 h, read-out: Mortality rate, %
[3] = test system: mucous membrane of nasal passages, formalin-induced acute rhinosinusitis; assay: Acute rhinosinusitis rat model (induced by intranasal 7.5% formalin solution); format: in vivo, Wistar rats; conditions: rats; for The number of caliciform cells within 1 mm of the mucous membrane of the nasal septum: tested compounds 27 mg/kg for 7 days after induction, M ± m; for Macroscopic changes in the mucous membrane of nasal passages: Muculent or mucopurulent catarrh (number of animals) / Macroscopic changes in the mucous membrane of nasal passages: Without changes (number of animals): tested compounds 27 mg/kg for 7 days, count out of n of the group
Procedure: Morphological studies of histologic preparations were conducted with a Leica DMLS light-optical microscope (Leica Microsystems, Germany). Micro-morphometric assessment was performed by using an ocular micrometer on a Leica DMLB microscope.
Acute rhinosinusitis was induced by intranasal administration of 20 μl of 7.5% formalin solution (aqueous solution comprising 40% formaldehyde, 8% methyl alcohol, and 52% water) to each nasal passage of rats.
Administration of formalin to rat nasal passages leads to the dissemination of inflammation to adjacent tissues, resulting in a clinical pattern similar to the symptoms of rhinosinusitis in a human.
After an acclimatization period, the following groups were formed: • intact animals administered intragastrically a saline solution in an amount of 0.2 ml, the induction of acute rhinosinusitis was not performed; • a control group consisted of the animals administered intragastrically a saline solution in an amount of 0.2 ml for 7 days after induction of acute rhinosinusitis; • animals administered intramuscularly dexamethasone at a dose of 0.33 mg/kg for 7 days after induction of acute rhinosinusitis; and • animals administered the tested compounds at a dose of 27 mg/kg for 7 days after induction of acute rhinosinusitis.
Clinical observation of each animal was performed every day at least twice daily.
In the experiment with Wistar rats, the induction of acute rhinosinusitis by administration of a 7.5% formalin solution to nasal passages caused in the control group of animals pronounced pathological changes characterizing the development of an acute inflammation process in the nasal mucous. The caused pathology was characterized by congestion, hyperplasia, focal necrosis of the nasal meatus mucous membrane, an increased number of caliciform cells, pronounced infiltration by mononuclear cells and leucocytes, and mucus hyperproduction by submucosal glands.
The mucous and submucous membranes of both nasal passages (respiratory and olfactory regions) of the experimental animals were subjected to a morphological analysis to evaluate a specific activity of the compounds.
For microscopic examination, the sections were stained with hematoxylin and eosin. Detection of acid mukopolysaccharides, the production of which is increased in an inflammation, was performed by histochemical staining of the preparation with Alcian Blue (pH 2.5). The comparison and histological evaluation of changes were performed versus the group of intact rats.
After slaughter, the gross appearance of inflammation in the nasal passages was studied in each animal. Histological, hystochemical and morphological studies of rats were intended to evaluate the following characteristics of nasal passages: congestion of the mucous membrane; hyperplasia and necrosis of nasal epithelium, the number of caliciform cells within 1 mm of the mucous membrane of the nasal septum, and the character of inflammation.
In this study, the efficiency of the mucociliary system was evaluated by the number of caliciform cells and, as a consequence, microscopic changes in the mucous membrane of the nasal passages.

[4] = test system: human respiratory syncytial virus (strain A2, ATCC VR-1540); format: in vivo; conditions: Balb/c mice, cyclophosphan 100 mg/kg 5 days before infection; 30 mg/kg once daily for 5 days from 24 h; score from possible 4; M ± SD, n = 5
[5] = test system: Coxsackie A2-virus (strain HCXV A2); assay: Antiviral activity against Coxsackie virus in vivo (mortality of infected mice); design: species or system white mice; conditions: mice; for inhibition in vivo at 30 mg/kg / mortality at 30 mg/kg: Mus musculus, po; for inhibition in vivo at 30 mg/kg: 168 h, read-out: Protective index (%); for inhibition in vivo at 30 mg/kg / Average expectancy life (days), Relative / Average expectancy life (days), Vs. control: 10LD50 HCXV A2, 30 mg/kg orally once daily for 7 days; for mortality at 30 mg/kg: 360 h, 10LD50 HCXV A2 i.m., 30 mg/kg orally once daily for 7 days from 24 h after infection, 15 days monitoring, read-out: Total mortality rate, %; for Average expectancy life (days), Vs. control: difference to virus control

O=C1CCCC(=O)N1CCc1cnc[nH]1 [Compound 1, 1-(2-(1H-imidazol-4-yl)ethyl)piperidine-2,6-dione]
Body weight of the mice after infection with hRV, day 0 [1]: 7.36 ± 0.97
Body weight of the mice after infection with hRV, day 1 [1]: 8.2 ± 4.25
Body weight of the mice after infection with hRV, day 2 [1]: 13.03 ± 3.51
Lung weight of the mice after infection with hRV, day 2 [1]: 136.9 ± 5.93
Body weight of the mice after infection with hRV, day 3 [1]: 13.47 ± 1.36
Lung weight of the mice after infection with hRV, day 3 [1]: 140.8 ± 5.14
Body weight of the mice after infection with hRV, day 4 [1]: 13.99 ± 1.53
Lung weight of the mice after infection with hRV, day 4 [1]: 128.2 ± 5.81
Suppression of the reproduction of the virus in mouse lungs, Δ lg, Day 2 after infection [1]: 1.1 ± 0.49 Δ lg
Suppression of the reproduction of the virus in mouse lungs, Δ lg, Day 3 after infection [1]: 1.7 ± 0.31 Δ lg
Suppression of the reproduction of the virus in mouse lungs, Δ lg, Day 4 after infection [1]: 2.18 ± 0.08 Δ lg
Infectious titer of the virus in lungs, lg TCID50, Day 2 after infection [1]: 2.9 ± 0.49 lg TCID50
Infectious titer of the virus in lungs, lg TCID50, Day 3 after infection [1]: 0.8 ± 0.31 lg TCID50
Infectious titer of the virus in lungs, lg TCID50, Day 4 after infection [1]: 0.03 ± 0.08 lg TCID50
mortality at 30 mg/kg [2]: 35%
The number of caliciform cells within 1 mm of the mucous membrane of the nasal septum [3]: 31.2 ± 1.2
Macroscopic changes in the mucous membrane of nasal passages: Muculent or mucopurulent catarrh (number of animals) [3]: 13
Macroscopic changes in the mucous membrane of nasal passages: Without changes (number of animals) [3]: 5
Degree of pulmonary edema on day 5 after infection, score [4]: 1.3 ± 0.27 score

CC1(C)CC(=O)N(CCc2cnc[nH]2)C(=O)C1 [Compound 3]
The number of caliciform cells within 1 mm of the mucous membrane of the nasal septum [3]: 35.8 ± 0.9
Macroscopic changes in the mucous membrane of nasal passages: Muculent or mucopurulent catarrh (number of animals) [3]: 7
Macroscopic changes in the mucous membrane of nasal passages: Without changes (number of animals) [3]: 5
Degree of pulmonary edema on day 5 after infection, score [4]: 1.6 ± 0.89 score

O=C1CCCC(=O)N1CCC1CCCN1 (stereo not drawn) [Compound 4]
Body weight of the mice after infection with hRV, day 0 [1]: 7.77 ± 1.02
Body weight of the mice after infection with hRV, day 1 [1]: 7.27 ± 1.27
Body weight of the mice after infection with hRV, day 2 [1]: 12.66 ± 2.32
Lung weight of the mice after infection with hRV, day 2 [1]: 142 ± 4.81
Body weight of the mice after infection with hRV, day 3 [1]: 13.14 ± 1.5
Lung weight of the mice after infection with hRV, day 3 [1]: 135.9 ± 4.18
Body weight of the mice after infection with hRV, day 4 [1]: 13.23 ± 1.38
Lung weight of the mice after infection with hRV, day 4 [1]: 134.2 ± 3.68
Suppression of the reproduction of the virus in mouse lungs, Δ lg, Day 2 after infection [1]: 1.65 ± 0.65 Δ lg
Suppression of the reproduction of the virus in mouse lungs, Δ lg, Day 3 after infection [1]: 1.9 ± 0.27 Δ lg
Suppression of the reproduction of the virus in mouse lungs, Δ lg, Day 4 after infection [1]: 2.2 ± 4.68 Δ lg
Infectious titer of the virus in lungs, lg TCID50, Day 2 after infection [1]: 2.35 ± 0.65 lg TCID50
Infectious titer of the virus in lungs, lg TCID50, Day 3 after infection [1]: 0.6 ± 0.27 lg TCID50
Infectious titer of the virus in lungs, lg TCID50, Day 4 after infection [1]: 0 ± 0 lg TCID50
mortality at 30 mg/kg [2]: 65%
Degree of pulmonary edema on day 5 after infection, score [4]: 1.95 ± 0.31 score

Cn1cnc(CCN2C(=O)CCCC2=O)c1 [Compound 5]
mortality at 30 mg/kg [2]: 45%
Degree of pulmonary edema on day 5 after infection, score [4]: 1.10 ± 0.19 score

O=C1CCCC(=O)N1CCc1nccs1 [Compound 6]
The number of caliciform cells within 1 mm of the mucous membrane of the nasal septum [3]: 36.5 ± 0.8
Macroscopic changes in the mucous membrane of nasal passages: Muculent or mucopurulent catarrh (number of animals) [3]: 4
Macroscopic changes in the mucous membrane of nasal passages: Without changes (number of animals) [3]: 2
Degree of pulmonary edema on day 5 after infection, score [4]: 0.90 ± 0.22 score

O=C1CCCC(=O)N1CCc1ccncc1 [Compound 9]
Degree of pulmonary edema on day 5 after infection, score [4]: 1.00 ± 0.17 score

CC1(C)CCC(=O)N(CCc2c[nH]cn2)C1=O [Compound 20]
mortality at 30 mg/kg [2]: 50%
Macroscopic changes in the mucous membrane of nasal passages: Muculent or mucopurulent catarrh (number of animals) [3]: 4
Macroscopic changes in the mucous membrane of nasal passages: Without changes (number of animals) [3]: 4

O=C1CCCC(=O)N1CCN1CCCC1 [Compound 23]
inhibition in vivo at 30 mg/kg [5]: 36%
mortality at 30 mg/kg [5]: 50%
Average expectancy life (days), Relative [5]: 23.8 days
Average expectancy life (days), Vs. control [5]: +13.1 days
mortality at 30 mg/kg [2]: 40%

O=C1CCCC(=O)N1CCn1ccnc1 [Compound 30]
inhibition in vivo at 30 mg/kg [5]: 18%
mortality at 30 mg/kg [5]: 60%
Average expectancy life (days), Relative [5]: 13.1 days
Average expectancy life (days), Vs. control [5]: +2.4 days
mortality at 30 mg/kg [2]: 50%

O=C1CCCC(=O)N1CCc1cn[nH]n1 [Compound 35]
inhibition in vivo at 30 mg/kg [5]: 27%
mortality at 30 mg/kg [5]: 53.3%
Average expectancy life (days), Relative [5]: 16.6 days
Average expectancy life (days), Vs. control [5]: +5.9 days
mortality at 30 mg/kg [2]: 55%

O=C1CCCC(=O)N1CCc1nnn[nH]1 [Compound 36]
inhibition in vivo at 30 mg/kg [5]: 27%
mortality at 30 mg/kg [5]: 53.3%
Average expectancy life (days), Relative [5]: 16.7 days
Average expectancy life (days), Vs. control [5]: +6.0 days
mortality at 30 mg/kg [2]: 60%

O=C1CCCC(=O)N1CCC1CCNC1 (stereo not drawn) [Compound 120]
Degree of pulmonary edema on day 5 after infection, score [4]: 1.05 ± 0.14 score

O=C1CCCC(=O)N1CCC1CCCNC1 (stereo not drawn) [Compound 121]
Degree of pulmonary edema on day 5 after infection, score [4]: 0.90 ± 0.21 score

O=C1CCCC(=O)N1CCC1CCNCC1 [Compound 123]
Degree of pulmonary edema on day 5 after infection, score [4]: 1.30 ± 0.17 score
